From patent US10787430B2, “Hemoglobin modifier compounds and uses thereof” (FronThera U.S. Pharmaceuticals LLC, priority 2016, dated 2020)

Tests used:
[1] = Microsome stability evaluation in rat liver microsomes; assay type: in vitro ADME; conditions: read-out: Rat microsome, t½
Description: (§1) Example A6: Microsome Stability Evaluation in Human and Rat Liver Microsomes

[2] = target: T1, hemoglobin (20% hct blood) (Homo sapiens, UniProt P68871+P69905); test: Dose-dependent whole blood OEC studies; assay type: cell-based; conditions: 37° C., 1 hr
T1 construct: Normal whole blood was collected from adult healthy donors; from tissue; host or cells: normal human whole blood (red blood cells), adult healthy donors
T1 sequence (P69905 2-142 limits assumed): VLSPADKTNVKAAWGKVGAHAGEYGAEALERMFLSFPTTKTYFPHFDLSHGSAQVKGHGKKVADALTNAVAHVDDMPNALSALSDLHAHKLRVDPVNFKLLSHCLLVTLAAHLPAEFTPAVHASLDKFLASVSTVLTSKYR
T1 sequence (P68871 2-147 limits assumed): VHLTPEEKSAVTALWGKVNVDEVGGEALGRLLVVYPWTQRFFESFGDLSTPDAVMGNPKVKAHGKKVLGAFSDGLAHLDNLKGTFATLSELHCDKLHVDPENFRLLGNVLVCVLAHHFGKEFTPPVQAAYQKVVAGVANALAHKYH
In short: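 Human whole blood at 20% hct shaken with 0.2, 0.5 or 1 mM compound at 37° C. for 1 hr; DMSO (1%) vehicle control. Oxygen equilibrium curves gave pO2 and Hb oxygen saturation (sO2), reported as delta p50%.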

CYP2C9 = target: T2, CYP2C9 (Homo sapiens, UniProt P11712); test: CYP inhibition evaluation in human liver microsomes; assay type: in vitro ADME
T2 construct: from tissue; host or cells: human liver microsomes
T2 sequence (P11712 whole entry): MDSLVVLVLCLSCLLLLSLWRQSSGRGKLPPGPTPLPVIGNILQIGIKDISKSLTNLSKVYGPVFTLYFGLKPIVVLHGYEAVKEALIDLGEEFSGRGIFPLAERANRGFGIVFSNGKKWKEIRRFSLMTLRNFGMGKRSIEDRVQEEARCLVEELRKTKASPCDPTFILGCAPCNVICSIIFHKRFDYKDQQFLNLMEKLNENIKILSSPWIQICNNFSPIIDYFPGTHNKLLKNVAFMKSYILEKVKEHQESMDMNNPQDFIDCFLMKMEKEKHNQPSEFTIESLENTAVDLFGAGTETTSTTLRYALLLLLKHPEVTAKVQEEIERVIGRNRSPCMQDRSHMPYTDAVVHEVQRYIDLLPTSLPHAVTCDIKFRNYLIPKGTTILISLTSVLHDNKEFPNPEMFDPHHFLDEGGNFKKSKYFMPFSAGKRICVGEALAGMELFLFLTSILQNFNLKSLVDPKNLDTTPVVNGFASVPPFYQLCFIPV
Description: (§2) Example A5: CYP Inhibition Evaluation in Human Liver Microsomes

CYP1A2 = target: T3, CYP1A2 (Homo sapiens, UniProt P05177); test: as above; assay type: in vitro ADME
T3 construct: from tissue; host or cells: human liver microsomes
T3 sequence (P05177 1-516): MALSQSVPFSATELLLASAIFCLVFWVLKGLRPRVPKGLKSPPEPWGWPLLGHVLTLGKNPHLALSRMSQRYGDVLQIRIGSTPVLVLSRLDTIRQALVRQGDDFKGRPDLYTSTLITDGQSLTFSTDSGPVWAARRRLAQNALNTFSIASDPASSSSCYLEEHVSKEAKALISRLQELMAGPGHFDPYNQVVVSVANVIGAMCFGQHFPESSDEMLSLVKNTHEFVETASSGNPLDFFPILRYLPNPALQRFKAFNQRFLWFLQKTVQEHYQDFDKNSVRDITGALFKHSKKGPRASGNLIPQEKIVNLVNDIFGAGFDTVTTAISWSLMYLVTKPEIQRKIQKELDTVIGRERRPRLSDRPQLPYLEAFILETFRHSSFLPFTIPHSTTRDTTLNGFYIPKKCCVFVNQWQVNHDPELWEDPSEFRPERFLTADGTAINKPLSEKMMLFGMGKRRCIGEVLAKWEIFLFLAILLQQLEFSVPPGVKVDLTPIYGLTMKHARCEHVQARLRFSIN
Description: as §2

CYP2C8 = target: T4, CYP2C8 (Homo sapiens, UniProt P10632); test: as above; assay type: in vitro ADME
T4 construct: from tissue; host or cells: human liver microsomes
T4 sequence (P10632 1-490): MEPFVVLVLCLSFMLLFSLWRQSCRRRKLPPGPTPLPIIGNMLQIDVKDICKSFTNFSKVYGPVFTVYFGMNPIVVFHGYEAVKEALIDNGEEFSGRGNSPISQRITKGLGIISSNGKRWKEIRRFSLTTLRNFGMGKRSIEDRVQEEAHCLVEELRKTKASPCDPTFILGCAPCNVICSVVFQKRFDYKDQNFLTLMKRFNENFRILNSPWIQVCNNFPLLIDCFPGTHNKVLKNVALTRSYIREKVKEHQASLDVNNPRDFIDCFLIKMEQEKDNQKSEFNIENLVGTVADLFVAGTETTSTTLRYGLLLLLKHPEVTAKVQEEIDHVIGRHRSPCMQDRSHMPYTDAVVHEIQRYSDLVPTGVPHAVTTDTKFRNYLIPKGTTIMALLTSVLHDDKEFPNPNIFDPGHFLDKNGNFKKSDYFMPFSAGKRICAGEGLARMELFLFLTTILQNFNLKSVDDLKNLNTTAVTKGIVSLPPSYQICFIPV
Description: as §2

CYP2C19 = target: T5, CYP2C19 (Homo sapiens, UniProt P33261); test: as above; assay type: in vitro ADME
T5 construct: from tissue; host or cells: human liver microsomes
T5 sequence (P33261 whole entry): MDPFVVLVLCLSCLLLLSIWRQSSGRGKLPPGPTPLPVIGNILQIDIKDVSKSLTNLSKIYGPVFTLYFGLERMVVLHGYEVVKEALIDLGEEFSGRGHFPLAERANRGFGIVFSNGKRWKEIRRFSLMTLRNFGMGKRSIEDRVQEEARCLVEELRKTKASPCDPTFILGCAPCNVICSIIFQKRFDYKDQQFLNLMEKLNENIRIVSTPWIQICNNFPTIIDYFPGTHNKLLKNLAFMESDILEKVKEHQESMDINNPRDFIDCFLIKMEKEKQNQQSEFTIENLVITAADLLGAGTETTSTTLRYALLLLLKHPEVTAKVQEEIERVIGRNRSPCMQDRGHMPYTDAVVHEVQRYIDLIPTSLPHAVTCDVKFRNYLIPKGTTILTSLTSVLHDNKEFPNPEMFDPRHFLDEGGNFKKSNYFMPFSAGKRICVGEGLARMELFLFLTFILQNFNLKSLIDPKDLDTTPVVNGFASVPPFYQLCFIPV
Description: as §2

CYP2D6 = target: T6, CYP2D6 (Homo sapiens, UniProt P10635); test: as above; assay type: in vitro ADME
T6 construct: from tissue; host or cells: human liver microsomes
T6 sequence (P10635 whole entry): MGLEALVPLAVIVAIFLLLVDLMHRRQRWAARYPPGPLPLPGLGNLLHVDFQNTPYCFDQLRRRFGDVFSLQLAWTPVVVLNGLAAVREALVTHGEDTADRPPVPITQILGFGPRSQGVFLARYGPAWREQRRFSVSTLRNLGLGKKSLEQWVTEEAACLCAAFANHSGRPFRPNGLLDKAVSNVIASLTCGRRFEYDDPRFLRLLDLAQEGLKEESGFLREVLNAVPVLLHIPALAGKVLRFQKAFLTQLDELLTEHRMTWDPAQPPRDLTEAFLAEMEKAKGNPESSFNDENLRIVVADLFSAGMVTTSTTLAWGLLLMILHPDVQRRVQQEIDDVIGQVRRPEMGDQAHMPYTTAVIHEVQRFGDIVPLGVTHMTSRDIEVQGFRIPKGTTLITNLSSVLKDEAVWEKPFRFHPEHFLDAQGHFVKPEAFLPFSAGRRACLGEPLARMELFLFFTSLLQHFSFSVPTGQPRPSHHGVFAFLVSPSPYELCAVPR
Description: as §2

CYP3A4-M = target: T7, CYP3A4-M (Homo sapiens, UniProt P08684); test: as above; assay type: in vitro ADME
T7 construct: from tissue; host or cells: human liver microsomes
T7 sequence (P08684 whole entry): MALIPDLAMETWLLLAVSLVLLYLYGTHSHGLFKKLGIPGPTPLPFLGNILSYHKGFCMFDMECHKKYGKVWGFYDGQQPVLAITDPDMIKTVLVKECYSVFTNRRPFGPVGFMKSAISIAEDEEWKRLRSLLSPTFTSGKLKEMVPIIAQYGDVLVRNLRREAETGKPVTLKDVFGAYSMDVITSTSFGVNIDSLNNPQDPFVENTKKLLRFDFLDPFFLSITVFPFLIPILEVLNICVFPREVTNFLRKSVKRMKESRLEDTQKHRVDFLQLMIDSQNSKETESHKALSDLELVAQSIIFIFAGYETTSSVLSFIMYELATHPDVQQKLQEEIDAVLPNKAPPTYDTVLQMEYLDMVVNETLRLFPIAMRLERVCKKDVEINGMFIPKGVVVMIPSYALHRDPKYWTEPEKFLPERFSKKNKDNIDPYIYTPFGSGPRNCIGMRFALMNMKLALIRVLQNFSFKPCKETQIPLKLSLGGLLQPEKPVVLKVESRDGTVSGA
Description: as §2

[3] = Microsome stability evaluation in human liver microsomes; assay type: in vitro ADME; conditions: read-out: Human microsome, t½
Description: as §1

- half-life [1]: 18 min
- delta p50 0.2 mM ([2]; 0.2 mM compound): −15.20%
- delta p50 0.5 mM ([2]; 0.5 mM compound): −46.80%
- IC50 (CYP2C9): 10.6 µM
- IC50 (CYP1A2): > 30 µM
- IC50 (CYP2C8): 25.2 µM
- IC50 (CYP2C19): 8.61 µM
- IC50 (CYP2D6): > 30 µM
- IC50 (CYP3A4-M): > 30 µM
- half-life [3]: 38 min
Structure (SMILES): [2H]C([2H])(Oc1cccc(O)c1C=O)c1cncnc1-c1ccnn1C(C)C [Example 38, 2-hydroxy-6-((4-(1-isopropyl-1H-pyrazol-5-yl)pyrimidin-5-yl)methoxy-d2)benzaldehyde]
